Laboratory results: ChEMBL document CHEMBL1157522 (Bioorg Med Chem Lett, 2008)
Calls of active or inactive are those of the source. The calls are words filed in the database; no cut-off is given here.

Tests used:
[1] = species: Canis familiaris; experiment: (§1) Volume of distribution at steady state in dog; assay type: ADME, organism-based, Canis lupus familiaris; details: in vivo
[2] = Metabolic stability in human liver microsomes assessed as half life; assay type: ADME, Microsome
[3] = Bioavailability in dog at 0.5 mg/kg, iv; assay type: ADME, organism-based, Canis lupus familiaris; details: in vivo
[4] = target: Plasma kallikrein (Homo sapiens) (UniProt P03952); experiment: Inhibition of human plasma kallikrein; assay type: cell-free
Chain of Plasma kallikrein (Homo sapiens) (P03952 20-390 limits assumed): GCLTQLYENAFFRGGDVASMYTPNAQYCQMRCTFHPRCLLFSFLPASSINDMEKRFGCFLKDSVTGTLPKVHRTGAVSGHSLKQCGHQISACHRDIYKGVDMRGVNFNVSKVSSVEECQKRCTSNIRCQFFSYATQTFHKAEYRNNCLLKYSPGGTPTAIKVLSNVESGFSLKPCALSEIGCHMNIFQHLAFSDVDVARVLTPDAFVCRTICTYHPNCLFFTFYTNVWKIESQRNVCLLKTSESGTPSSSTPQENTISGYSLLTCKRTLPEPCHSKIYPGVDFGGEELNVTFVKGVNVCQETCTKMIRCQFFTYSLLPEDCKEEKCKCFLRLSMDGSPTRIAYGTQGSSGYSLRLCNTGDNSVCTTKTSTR
Chain of Plasma kallikrein (Homo sapiens) (P03952 391-638 limits assumed): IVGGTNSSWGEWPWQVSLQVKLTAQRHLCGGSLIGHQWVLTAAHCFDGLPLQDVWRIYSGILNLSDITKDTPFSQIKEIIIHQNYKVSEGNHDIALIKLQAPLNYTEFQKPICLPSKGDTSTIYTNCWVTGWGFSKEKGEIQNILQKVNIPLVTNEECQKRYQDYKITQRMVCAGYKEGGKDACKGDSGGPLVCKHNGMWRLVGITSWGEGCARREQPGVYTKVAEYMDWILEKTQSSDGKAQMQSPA

[5] = Half life in dog at 0.2 mg/kg, po; assay type: ADME, organism-based, Canis lupus familiaris; parameters: dose 0.2 mg/kg, route oral; details: in vivo
[6] = target: Vitamin K-dependent protein C (Homo sapiens) (UniProt P04070); experiment: Inhibition of human activated protein C
Chain of Vitamin K-dependent protein C (Homo sapiens) (P04070 43-197 limits assumed): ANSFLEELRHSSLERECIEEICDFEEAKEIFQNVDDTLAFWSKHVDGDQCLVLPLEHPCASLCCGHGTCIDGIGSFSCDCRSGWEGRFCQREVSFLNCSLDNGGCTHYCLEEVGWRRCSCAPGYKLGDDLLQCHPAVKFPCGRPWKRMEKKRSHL
Chain of Vitamin K-dependent protein C (Homo sapiens) (P04070 212-461 limits assumed): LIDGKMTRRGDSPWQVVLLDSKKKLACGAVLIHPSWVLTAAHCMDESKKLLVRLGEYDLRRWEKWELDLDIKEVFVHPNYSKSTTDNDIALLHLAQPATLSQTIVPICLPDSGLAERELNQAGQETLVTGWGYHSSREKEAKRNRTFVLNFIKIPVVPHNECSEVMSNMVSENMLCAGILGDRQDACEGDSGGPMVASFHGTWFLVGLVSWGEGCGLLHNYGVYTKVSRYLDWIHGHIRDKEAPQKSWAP

[7] = target: T1, Coagulation factor VII (Homo sapiens) (UniProt P08709); experiment: Inhibition of human factor 7a
T1 sequence (whole entry): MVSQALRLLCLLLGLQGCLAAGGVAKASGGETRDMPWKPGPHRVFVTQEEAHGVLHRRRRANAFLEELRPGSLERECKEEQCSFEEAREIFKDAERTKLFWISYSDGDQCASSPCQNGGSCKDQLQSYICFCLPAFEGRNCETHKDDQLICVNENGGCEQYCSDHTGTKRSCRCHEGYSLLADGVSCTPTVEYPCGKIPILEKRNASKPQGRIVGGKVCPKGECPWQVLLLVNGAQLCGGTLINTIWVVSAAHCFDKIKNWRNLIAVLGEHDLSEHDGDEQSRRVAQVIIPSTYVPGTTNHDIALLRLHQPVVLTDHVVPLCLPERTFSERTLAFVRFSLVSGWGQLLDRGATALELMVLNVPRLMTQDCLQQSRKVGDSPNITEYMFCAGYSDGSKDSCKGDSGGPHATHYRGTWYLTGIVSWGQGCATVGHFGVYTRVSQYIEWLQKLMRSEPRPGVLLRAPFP

[8] = as §1; assay type: ADME, organism-based, Canis lupus familiaris; details: in vivo, read-out: Vdss
[9] = target: Coagulation factor IX (Homo sapiens) (UniProt P00740); experiment: Inhibition of human factor 9a
Chain of Coagulation factor IX (Homo sapiens) (P00740 47-191 limits assumed): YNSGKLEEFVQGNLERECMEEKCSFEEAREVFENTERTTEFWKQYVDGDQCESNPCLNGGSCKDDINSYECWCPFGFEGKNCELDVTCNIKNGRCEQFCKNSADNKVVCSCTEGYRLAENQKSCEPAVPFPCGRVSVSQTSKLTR
Chain of Coagulation factor IX (Homo sapiens) (P00740 227-461 limits assumed): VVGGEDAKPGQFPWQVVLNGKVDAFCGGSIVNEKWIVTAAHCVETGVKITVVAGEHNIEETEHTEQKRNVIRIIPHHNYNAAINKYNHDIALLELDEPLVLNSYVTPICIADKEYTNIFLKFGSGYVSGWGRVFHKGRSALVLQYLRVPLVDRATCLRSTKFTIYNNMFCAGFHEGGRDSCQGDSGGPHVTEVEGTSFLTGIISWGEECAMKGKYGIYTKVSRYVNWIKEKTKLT

[10] = target: Tissue-type plasminogen activator (Homo sapiens) (UniProt P00750); experiment: Inhibition of human tPA
Chain of Tissue-type plasminogen activator (Homo sapiens) (P00750 36-562 limits assumed): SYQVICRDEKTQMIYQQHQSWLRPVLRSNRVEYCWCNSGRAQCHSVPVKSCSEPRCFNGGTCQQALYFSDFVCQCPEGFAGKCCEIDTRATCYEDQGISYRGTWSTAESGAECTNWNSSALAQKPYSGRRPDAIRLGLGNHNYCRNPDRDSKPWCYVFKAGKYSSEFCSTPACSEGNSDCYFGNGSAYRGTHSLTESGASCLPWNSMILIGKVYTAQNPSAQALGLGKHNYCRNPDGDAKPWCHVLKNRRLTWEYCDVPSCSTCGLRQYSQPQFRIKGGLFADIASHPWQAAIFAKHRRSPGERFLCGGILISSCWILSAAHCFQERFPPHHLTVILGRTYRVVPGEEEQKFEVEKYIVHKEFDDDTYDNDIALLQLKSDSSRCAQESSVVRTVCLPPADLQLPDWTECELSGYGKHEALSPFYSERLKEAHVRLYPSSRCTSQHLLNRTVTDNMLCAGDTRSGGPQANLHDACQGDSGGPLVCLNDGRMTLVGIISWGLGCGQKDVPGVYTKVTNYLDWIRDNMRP

[11] = target: Plasminogen (Homo sapiens) (UniProt P00747); experiment: Inhibition of human plasmin
Chain of Plasminogen (Homo sapiens) (P00747 97-580 limits assumed): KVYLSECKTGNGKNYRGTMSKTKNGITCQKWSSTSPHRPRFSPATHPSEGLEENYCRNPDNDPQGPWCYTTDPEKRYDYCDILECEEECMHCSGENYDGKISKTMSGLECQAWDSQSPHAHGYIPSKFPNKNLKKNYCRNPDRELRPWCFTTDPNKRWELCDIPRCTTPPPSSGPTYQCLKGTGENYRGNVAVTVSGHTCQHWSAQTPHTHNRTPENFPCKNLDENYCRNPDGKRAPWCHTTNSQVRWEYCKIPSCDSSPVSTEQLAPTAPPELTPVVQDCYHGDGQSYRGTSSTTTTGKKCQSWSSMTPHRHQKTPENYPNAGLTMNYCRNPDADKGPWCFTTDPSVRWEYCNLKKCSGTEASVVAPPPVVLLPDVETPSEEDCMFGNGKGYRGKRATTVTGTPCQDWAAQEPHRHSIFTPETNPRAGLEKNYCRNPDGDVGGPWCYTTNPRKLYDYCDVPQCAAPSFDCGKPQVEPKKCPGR
Chain of Plasminogen (Homo sapiens) (P00747 581-810 limits assumed): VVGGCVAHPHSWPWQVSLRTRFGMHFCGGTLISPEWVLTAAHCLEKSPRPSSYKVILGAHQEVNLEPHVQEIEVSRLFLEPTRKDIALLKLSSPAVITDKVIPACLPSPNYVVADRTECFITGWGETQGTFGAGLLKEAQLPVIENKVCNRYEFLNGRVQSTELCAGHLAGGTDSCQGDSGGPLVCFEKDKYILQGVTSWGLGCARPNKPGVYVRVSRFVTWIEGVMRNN

[12] = Clearance in dog at 0.5 mg/kg, iv; assay type: ADME, organism-based, Canis lupus familiaris; parameters: dose 0.5 mg/kg, route intravenous; details: in vivo
[13] = species: Homo sapiens; experiment: Inhibition of human chymotrypsin
[14] = target: Trypsin (Homo sapiens) (UniProt P07477+P07478+P35030); experiment: Inhibition of human trypsin; assay type: protein assay
[15] = target: Coagulation factor X (Homo sapiens, UniProt P00742); experiment: Inhibition of human factor 10a
Chain of Coagulation factor X (P00742 41-179 limits assumed): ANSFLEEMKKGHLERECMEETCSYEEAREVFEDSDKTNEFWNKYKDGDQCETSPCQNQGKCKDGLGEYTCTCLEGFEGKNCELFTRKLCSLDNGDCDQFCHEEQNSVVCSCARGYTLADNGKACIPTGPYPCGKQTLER
Chain of Coagulation factor X (P00742 235-488 limits assumed): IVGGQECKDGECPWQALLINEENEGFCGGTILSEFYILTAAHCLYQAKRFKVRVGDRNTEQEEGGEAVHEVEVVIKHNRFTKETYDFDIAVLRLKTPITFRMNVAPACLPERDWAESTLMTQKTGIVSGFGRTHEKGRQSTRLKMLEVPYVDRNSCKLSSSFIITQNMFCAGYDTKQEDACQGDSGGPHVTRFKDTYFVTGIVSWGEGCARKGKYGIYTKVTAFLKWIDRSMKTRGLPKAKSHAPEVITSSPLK

Vdss [1]	half-life [2]	bioavailability [3]	Activity [4]	half-life [5]	Activity [6]	Activity [7]	Vd [8]	Activity [9]	Activity [10]	Activity [11]	clearance [12]	Activity [13]	Activity [14]	Ki [15]	Compound
5.3 L/kg	0.6 h	84%	–	–	–	–	–	–	–	–	–	–	–	–	CN(C)Cc1nccn1-c1ccc(NC(=O)c2cc(C(F)(F)F)nn2-c2ccc3onc(N)c3c2)c(F)c1 [RAZAXABAN]
–	1.83 h	53%	inactive	12 h	inactive	inactive	15 L/kg	inactive	inactive	inactive	20 mL/min/kg	inactive	–	–	COc1ccc(-n2nc(C(F)(F)F)c3c2C(=O)N(c2ccc(C4(CN(C)C)CC4)cc2)CC3)cc1
–	–	–	inactive	–	inactive	inactive	–	inactive	inactive	inactive	–	inactive	inactive	42 pM	COc1ccc(-n2nc(C(F)(F)F)c3c2C(=O)N(c2ccc(C4(CNC(C)C)CC4)cc2)CC3)cc1
–	–	–	inactive	–	inactive	inactive	–	inactive	inactive	inactive	–	inactive	inactive	< 20 pM	CCN(CC)CC1(c2ccc(N3CCc4c(C(F)(F)F)nn(-c5ccc(OC)cc5)c4C3=O)cc2)CC1
